Results as given in US20130310326A1, “Histatin for Corneal Wound Healing and Ocular Surface Disease” (RAPID PATHOGEN SCREENING, INC., priority 2012, published 2013).

Tested on: corneal wounds (epithelial defects in the right eye)
Test: Corneal wound healing in rabbits (epithelial defect, fluorescein staining, computerized area determination)
Assay type: in vivo, New Zealand White rabbits
Conditions: for Percentage of 1 hour post wound size: approximate, without standard deviation
Procedure: The study disclosed herein evaluates and quantifies the wound healing effects of histatins on the ocular surface of New Zealand White rabbits.
Epithelial defects are created in the right eye (oculus dexter, OD) of 12 New Zealand White rabbits. Due to animal regulations, bilateral wounding is not permitted. After the epithelial defects are made, the rabbits are randomized into treatment groups. Two (2) groups are treated with different cyclized histatin concentrations: 0.1 μg/ml and 10 μg/ml dissolved into an ophthalmic artificial tear preparation and delivered to the rabbits as an eye drop three times daily. Histatins known in the art, including, but not limited to, amino acid SEQ. ID. NOs. 1 through 33, which include Hst-1 (SEQ. ID. NO. 4), Hst-2 (SEQ. ID. NO. 5), Hst-3 (SEQ. ID. NO. 6), Hst-5 (SEQ. ID. NO. 30), and sortase cyclized histatin (SEQ. ID. NO. 33), may be used in these studies or in treatment protocols. […] This control group should receive the same vehicle identical to the other two groups but without histatin. An over-the-counter artificial tear preferably serves as the vehicle. The initial study included four (4) animals/group in three (3) groups, for a total of twelve rabbits.
Each rabbit group is preferably given moxifloxicin treatment to prevent infection.
The corneal wounds are then evaluated daily for the corneal wound healing abilities of histatin via fluorescein staining, fluorescent slit lamp biomicrophotography and computerized area determination. Evaluators are masked to the therapeutic treatment given to the rabbits. After healing, two (2) animals from each group are euthanized, and the corneas collected for histological processing (H&E staining with subsequent evaluation by veterinary histopathologist). The decision to perform histopathologic analysis after tissue procurement is made only if there is proven difference in healing between the different treatment groups and the controls. At study termination (study preferably continues for seven days), the remaining animals are euthanized.
The histatin used in this study was cyclized histatin 1. The histatin 1 used was a sortase cyclized histatin with amino acid SEQ. ID. NO.

Substance: cyclo(DNLPETGGDSHEKRHHGYRRKFHEKHHSHREFPFYGDYGSNYLY) [cyclized histatin 1]
- corneal wound size (0.1 μg/ml eye drop three times daily, 0 hours post wound): 112.7 ± 37.8 mm^2
- corneal wound size (0.1 μg/ml eye drop three times daily, 6 hours post wound): 96.2 ± 13.6 mm^2
- corneal wound size (0.1 μg/ml eye drop three times daily, 24 hours post wound): 77.5 ± 25.0 mm^2
- corneal wound size (0.1 μg/ml eye drop three times daily, 30 hours post wound): 48.8 ± 8.0 mm^2
- corneal wound size (0.1 μg/ml eye drop three times daily, 48 hours post wound): 2.7 ± 3.1 mm^2
- corneal wound size (0.1 μg/ml eye drop three times daily, 54 hours post wound): 0.00 ± 0.00 mm^2
- corneal wound size (0.1 μg/ml eye drop three times daily, 72 hours post wound): 0.00 ± 0.00 mm^2
- healing activity of corneal wounds versus control (0.1 μg/ml or 10 μg/ml versus vehicle control, rabbits): significant dose dependent accelerated healing activity
- Percentage of 1 hour post wound size (0.1 ug/ml, 0 hours post wound): 100%
- Percentage of 1 hour post wound size (0.1 ug/ml, 6 hours post wound): 85%
- Percentage of 1 hour post wound size (0.1 ug/ml, 24 hours post wound): 69%
- Percentage of 1 hour post wound size (0.1 ug/ml, 30 hours post wound): 43%
- Percentage of 1 hour post wound size (0.1 ug/ml, 48 hours post wound): 2%
- Percentage of 1 hour post wound size (0.1 ug/ml, 54 hours post wound): 0%
- Percentage of 1 hour post wound size (0.1 ug/ml, 72 hours post wound): 0%
- corneal wound size (10 μg/ml eye drop three times daily, 0 hours post wound): 88.4 ± 31.6 mm^2
- corneal wound size (10 μg/ml eye drop three times daily, 6 hours post wound): 74.0 ± 14.7 mm^2
- corneal wound size (10 μg/ml eye drop three times daily, 24 hours post wound): 51.4 ± 9.3 mm^2
- corneal wound size (10 μg/ml eye drop three times daily, 30 hours post wound): 37.7 ± 9.4 mm^2
- corneal wound size (10 μg/ml eye drop three times daily, 48 hours post wound): 0.00 ± 0.07 mm^2
- corneal wound size (10 μg/ml eye drop three times daily, 54 hours post wound): 0.00 ± 0.00 mm^2
- corneal wound size (10 μg/ml eye drop three times daily, 72 hours post wound): 0.00 ± 0.00 mm^2
- Percentage of 1 hour post wound size (10 ug/ml, 0 hours post wound): 100%
- Percentage of 1 hour post wound size (10 ug/ml, 6 hours post wound): 84%
- Percentage of 1 hour post wound size (10 ug/ml, 24 hours post wound): 58%
- Percentage of 1 hour post wound size (10 ug/ml, 30 hours post wound): 43%
- Percentage of 1 hour post wound size (10 ug/ml, 48 hours post wound): 0%
- Percentage of 1 hour post wound size (10 ug/ml, 54 hours post wound): 0%
- Percentage of 1 hour post wound size (10 ug/ml, 72 hours post wound): 0%
